Test results published in ChEMBL document CHEMBL1201862, “PubChem BioAssay data set” (2004).
The source made the active and inactive calls.

What was measured:
T-cell = experiment: loss of vesicle association with mouse CD8+ T cells – mouse 2C CD8+ T cells, flow cytometry, dose response (AID 485284); format: functional
Streptokinase A = target: T1, Streptokinase A (Streptococcus pyogenes serotype M1, UniProt P10520); experiment: viability-normalized secreted streptokinase activity reduction – plasminogen activation absorbance, OD405, dose response (AID 1914); format: functional, Streptococcus pyogenes M1 GAS;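 note: secreted streptokinase activity via plasminogen activation per viability signal from cell pellet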
T1 sequence (P10520 whole entry): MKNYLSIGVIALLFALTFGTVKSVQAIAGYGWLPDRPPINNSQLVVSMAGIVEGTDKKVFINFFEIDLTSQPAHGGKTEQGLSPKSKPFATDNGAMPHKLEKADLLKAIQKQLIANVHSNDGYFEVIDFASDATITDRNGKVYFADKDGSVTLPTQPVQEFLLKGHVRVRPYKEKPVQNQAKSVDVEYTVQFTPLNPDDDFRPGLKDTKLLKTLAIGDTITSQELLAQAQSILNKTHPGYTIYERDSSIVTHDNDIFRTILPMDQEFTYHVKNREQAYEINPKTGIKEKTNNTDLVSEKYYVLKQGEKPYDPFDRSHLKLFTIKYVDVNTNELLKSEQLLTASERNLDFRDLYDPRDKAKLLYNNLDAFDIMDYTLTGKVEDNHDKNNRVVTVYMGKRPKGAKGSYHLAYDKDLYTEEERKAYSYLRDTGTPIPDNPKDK

CAAX prenyl protease 2 = target: T2, CAAX prenyl protease 2 (Saccharomyces cerevisiae S288c, UniProt Q03530); format: biochemical
T2 sequence (Q03530 whole entry): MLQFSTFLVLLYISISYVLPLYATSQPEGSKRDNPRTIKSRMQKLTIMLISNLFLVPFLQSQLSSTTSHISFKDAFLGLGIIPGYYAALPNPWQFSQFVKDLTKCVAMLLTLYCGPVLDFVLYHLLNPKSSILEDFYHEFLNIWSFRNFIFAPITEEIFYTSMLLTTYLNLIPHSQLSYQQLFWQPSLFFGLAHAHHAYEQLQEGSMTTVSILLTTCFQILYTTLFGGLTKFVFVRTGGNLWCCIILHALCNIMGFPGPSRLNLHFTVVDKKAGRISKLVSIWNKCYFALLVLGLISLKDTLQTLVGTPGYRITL

Streptococcus = experiment: GAS UMAA2166 growth inhibition – luminescence, BacTiterGlo, counter-screen for streptokinase expression inhibitor project, dose response (AID 1915); format: functional, organism-based;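 note: potency for reduction of bacterial viability or growth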
[1] = tested on: Streptococcus sp. 'group A'; experiment: Streptococcus pyogenes SK(-)GAS viability under kanamycin – luminescence, BacTiterGlo, confirmation, counter-screen for streptokinase expression inhibitor project, dose response (AID 1900); format: functional, organism-based
HEK293 [2] = experiment: cells; format: functional, cell-based; conditions: Homo sapiens
Tumor necrosis factor = Tumor necrosis factor (Homo sapiens, UniProt P01375); experiment: analog potency on TNFa NF-kB signaling – cell-based, revised, SAR follow-up (AID 2337); format: functional
HEK293 [3] = experiment: cells; format: functional, cell-based; conditions: Homo sapiens; remark: listed apart in the source
HEK293 [4] = experiment: cells; conditions: Homo sapiens
HEK293 [5] = experiment: inhibition of NOD1-driven NF-kB reporter – cell-based, luminescence, uHTS, primary screen (AID 1578); format: functional; conditions: Homo sapiens
[6] = target: T3, Nucleotide-binding oligomerization domain-containing protein 1 (Homo sapiens, UniProt Q9Y239); experiment: blockers of NOD1 pathway activity – revised, SAR follow-up (AID 2333); format: functional
T3 sequence (Q9Y239 whole entry): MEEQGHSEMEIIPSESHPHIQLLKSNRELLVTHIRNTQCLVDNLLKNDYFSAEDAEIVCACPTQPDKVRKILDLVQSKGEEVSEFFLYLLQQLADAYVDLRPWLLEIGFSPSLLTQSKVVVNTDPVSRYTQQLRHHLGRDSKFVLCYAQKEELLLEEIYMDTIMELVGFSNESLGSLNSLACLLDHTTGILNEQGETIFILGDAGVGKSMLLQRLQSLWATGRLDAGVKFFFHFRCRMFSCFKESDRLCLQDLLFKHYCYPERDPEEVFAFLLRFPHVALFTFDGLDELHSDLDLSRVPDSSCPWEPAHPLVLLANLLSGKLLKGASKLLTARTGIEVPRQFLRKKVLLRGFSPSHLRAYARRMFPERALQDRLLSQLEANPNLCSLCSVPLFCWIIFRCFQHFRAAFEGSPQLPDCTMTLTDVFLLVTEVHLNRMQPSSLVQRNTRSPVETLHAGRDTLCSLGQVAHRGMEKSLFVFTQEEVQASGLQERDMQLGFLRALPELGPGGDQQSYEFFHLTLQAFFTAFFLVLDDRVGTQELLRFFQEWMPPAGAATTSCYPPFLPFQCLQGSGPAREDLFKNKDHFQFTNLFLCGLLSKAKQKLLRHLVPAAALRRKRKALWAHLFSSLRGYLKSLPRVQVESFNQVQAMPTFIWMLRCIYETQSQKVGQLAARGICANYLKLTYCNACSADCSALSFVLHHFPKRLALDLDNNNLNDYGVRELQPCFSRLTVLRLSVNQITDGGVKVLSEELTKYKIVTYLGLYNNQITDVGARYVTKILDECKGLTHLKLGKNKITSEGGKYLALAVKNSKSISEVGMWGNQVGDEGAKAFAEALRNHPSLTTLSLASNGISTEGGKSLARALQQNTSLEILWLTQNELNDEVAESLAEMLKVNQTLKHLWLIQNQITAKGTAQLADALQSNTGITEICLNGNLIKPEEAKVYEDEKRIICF

HEK293 [7] = experiment: NOD2 signaling inhibitors in MDP-stimulated cells, cell-based, uHTS, luminescence (AID 2001); format: functional; conditions: Homo sapiens
[8] = target: DNA dC->dU-editing enzyme APOBEC-3A (Homo sapiens, UniProt P31941); experiment: Dose Response confirmation of small molecule APOBEC3A DNA Deaminase Inhibitors via a fluorescence-based single-stranded DNA deaminase assay. [Related pubchem assays (depositor defined):AID493011, AID493024]; format: functional
[9] = target: T4, DNA dC->dU-editing enzyme APOBEC-3G (Homo sapiens, UniProt Q9HC16); format: functional
[10] = target: T4, DNA dC->dU-editing enzyme APOBEC-3G; experiment: Dose Response confirmation of small molecule APOBEC3G DNA Deaminase Inhibitors via a fluorescence-based single-stranded DNA deaminase assay. [Related pubchem assays (depositor defined):AID493012, AID493028]; format: functional
[11] = target: Heat shock protein HSP 90-alpha (Homo sapiens, UniProt P07900); format: functional, organism-based
X-box-binding protein 1 = target: T5, X-box-binding protein 1 (Homo sapiens, UniProt P17861); format: functional, Cricetulus griseus;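 note: confirmatory dose-response counter-screen serving a CHOP assay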
T5 sequence (P17861 whole entry): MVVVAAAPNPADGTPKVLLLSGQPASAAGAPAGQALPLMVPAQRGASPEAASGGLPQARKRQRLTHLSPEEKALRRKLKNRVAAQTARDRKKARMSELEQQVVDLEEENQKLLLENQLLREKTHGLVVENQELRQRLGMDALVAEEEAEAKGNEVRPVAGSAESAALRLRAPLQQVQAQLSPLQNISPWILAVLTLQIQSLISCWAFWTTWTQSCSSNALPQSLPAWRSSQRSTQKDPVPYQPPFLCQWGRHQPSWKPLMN

[12] = target: T6, DNA repair protein RAD52 homolog (Homo sapiens, UniProt P43351); format: functional, biochemical
T6 sequence (P43351 whole entry): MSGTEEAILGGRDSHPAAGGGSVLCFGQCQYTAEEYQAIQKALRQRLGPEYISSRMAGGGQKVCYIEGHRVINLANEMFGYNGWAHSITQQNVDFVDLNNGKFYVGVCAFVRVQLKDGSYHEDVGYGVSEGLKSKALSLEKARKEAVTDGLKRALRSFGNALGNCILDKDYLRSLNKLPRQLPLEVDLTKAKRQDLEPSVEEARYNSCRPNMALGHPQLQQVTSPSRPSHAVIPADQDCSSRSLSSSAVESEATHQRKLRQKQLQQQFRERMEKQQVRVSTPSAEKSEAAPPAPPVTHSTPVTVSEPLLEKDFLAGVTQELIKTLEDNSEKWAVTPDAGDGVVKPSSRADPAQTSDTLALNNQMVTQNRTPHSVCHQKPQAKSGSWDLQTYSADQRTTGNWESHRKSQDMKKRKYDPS

[13] = target: Alkaline phosphatase, placental type (Homo sapiens, UniProt P05187); experiment: human placental alkaline phosphatase inhibition – biochemical, luminescence, confirmation (AID 1512); format: functional
Hexokinase = target: T7, Hexokinase (Trypanosoma brucei, UniProt Q38C41); experiment: Confirmation assay for inhibitors of Trypanosoma brucei hexokinase 1-Analogue-first series. [Related pubchem assays (depositor defined):AID1430, AID1632, AID2516, AID2560, AID2579, AID2600, AID449725, AID492951]; format: functional
T7 sequence (Q38C41 whole entry): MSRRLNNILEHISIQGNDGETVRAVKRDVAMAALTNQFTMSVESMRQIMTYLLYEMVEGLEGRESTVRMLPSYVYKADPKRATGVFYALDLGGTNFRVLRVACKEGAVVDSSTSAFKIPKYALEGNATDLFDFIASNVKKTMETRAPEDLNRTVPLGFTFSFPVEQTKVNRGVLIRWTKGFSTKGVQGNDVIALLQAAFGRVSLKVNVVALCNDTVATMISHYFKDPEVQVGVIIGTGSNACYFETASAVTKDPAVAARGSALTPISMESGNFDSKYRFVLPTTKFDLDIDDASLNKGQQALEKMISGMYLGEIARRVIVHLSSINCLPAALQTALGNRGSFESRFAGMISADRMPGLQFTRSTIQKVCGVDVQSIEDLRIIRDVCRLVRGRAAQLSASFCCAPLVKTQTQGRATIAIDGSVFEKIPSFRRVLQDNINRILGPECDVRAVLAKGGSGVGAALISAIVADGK

[14] = target: T8, Alkaline phosphatase, tissue-nonspecific isozyme (Homo sapiens, UniProt P05186); experiment: potency against alkaline phosphatase TNAP – biochemical, luminescent, dose response, SAR follow-up (AID 1056)
T8 sequence (P05186 whole entry): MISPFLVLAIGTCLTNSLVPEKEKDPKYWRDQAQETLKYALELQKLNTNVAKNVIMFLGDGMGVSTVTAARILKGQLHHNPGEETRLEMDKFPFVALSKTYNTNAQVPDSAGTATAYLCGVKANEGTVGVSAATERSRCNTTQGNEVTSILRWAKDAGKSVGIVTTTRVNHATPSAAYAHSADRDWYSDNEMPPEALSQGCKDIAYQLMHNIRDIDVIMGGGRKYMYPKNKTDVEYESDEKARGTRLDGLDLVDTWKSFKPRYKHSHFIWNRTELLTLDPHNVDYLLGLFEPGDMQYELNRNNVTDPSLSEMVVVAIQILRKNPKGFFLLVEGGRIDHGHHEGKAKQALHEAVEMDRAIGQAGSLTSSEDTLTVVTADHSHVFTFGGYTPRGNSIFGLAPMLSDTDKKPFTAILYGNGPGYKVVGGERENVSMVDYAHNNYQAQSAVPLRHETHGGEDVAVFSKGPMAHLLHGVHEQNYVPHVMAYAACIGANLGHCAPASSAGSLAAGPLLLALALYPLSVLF

Sequence of Alkaline phosphatase, placental type (P05187 whole entry): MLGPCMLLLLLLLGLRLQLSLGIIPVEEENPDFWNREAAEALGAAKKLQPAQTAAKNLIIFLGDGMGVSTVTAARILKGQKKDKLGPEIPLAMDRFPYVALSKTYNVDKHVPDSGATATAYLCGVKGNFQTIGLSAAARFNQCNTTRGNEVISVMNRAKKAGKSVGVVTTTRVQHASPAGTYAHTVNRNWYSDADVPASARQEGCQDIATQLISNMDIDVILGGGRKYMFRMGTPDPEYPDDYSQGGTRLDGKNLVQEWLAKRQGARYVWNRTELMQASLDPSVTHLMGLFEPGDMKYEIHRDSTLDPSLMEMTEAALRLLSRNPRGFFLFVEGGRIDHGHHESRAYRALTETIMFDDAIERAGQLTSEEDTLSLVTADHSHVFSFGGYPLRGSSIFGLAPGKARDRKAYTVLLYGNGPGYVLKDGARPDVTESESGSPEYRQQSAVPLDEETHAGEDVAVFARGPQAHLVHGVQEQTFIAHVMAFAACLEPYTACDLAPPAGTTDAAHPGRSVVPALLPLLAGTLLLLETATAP
T4 sequence (Q9HC16 whole entry): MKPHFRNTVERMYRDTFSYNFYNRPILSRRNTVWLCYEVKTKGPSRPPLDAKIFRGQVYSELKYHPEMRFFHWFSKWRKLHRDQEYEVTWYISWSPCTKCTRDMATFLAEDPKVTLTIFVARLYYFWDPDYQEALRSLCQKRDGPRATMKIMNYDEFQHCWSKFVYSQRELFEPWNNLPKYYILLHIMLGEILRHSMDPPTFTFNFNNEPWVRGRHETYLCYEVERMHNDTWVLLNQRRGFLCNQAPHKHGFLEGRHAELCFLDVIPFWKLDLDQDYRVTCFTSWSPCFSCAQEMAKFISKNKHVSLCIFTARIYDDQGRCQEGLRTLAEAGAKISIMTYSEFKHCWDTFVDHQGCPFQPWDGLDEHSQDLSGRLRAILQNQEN
Sequence of DNA dC->dU-editing enzyme APOBEC-3A (P31941 whole entry): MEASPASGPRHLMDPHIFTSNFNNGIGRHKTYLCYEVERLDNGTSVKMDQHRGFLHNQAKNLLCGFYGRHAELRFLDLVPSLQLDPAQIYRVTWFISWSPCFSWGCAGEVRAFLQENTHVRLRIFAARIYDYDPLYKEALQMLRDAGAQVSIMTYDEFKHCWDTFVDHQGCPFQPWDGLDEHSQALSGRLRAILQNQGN
Sequence of Tumor necrosis factor (P01375 whole entry): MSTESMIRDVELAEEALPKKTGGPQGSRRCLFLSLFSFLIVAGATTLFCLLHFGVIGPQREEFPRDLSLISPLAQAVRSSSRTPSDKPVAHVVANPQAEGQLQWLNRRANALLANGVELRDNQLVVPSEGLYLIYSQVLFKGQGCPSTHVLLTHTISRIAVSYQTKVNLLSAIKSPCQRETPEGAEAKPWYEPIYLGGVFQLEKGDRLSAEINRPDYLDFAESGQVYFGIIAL

Compound: Cc1ccc(N2CC(C(=O)NC3=NCCS3)CC2=O)cc1 (stereo unspecified)
- EC50 (T-cell): 22.1 µM (active)

Compound: Cc1cc(Cl)c2oc(C(=O)N3CCN(C(=O)c4ccco4)CC3)c(C)c2c1
- EC50 (Streptokinase A): > 150 µM (not active)
- AC50 (CAAX prenyl protease 2): 21.7 µM (active)
- EC50 (Streptococcus): 24.7 µM (active)
- EC50 [1]: 3.4 µM (active)

Compound: Oc1nc(/C=C/c2ccccc2C(F)(F)F)cc(C(F)(F)F)n1
- IC50 (HEK293 [2]): > 20 µM (inactive)
- IC50 (Tumor necrosis factor): 11.3 µM (active)
- IC50 (HEK293 [3]): > 20 µM (inactive)
- IC50 (HEK293 [4]): > 20 µM (inactive)
- EC50 (HEK293 [5]): 9.79 µM (active)
- IC50 [6]: 3.82 µM (active)
- IC50 (HEK293 [7]): 13.3 µM (inactive)

Compound: CCOc1ccc(N(Cc2ccc(OC)cc2)C(=O)c2ccco2)cc1
- AC50 (CAAX prenyl protease 2): 4.23 µM (active)

Compound: Cc1nc2nc(C)n(-c3ccccc3)c2s1
- IC50 [8]: 17.7 µM (active)
- IC50 [9]: 6.72 µM (active)

Compound: CCCCCC(=O)N(O)C1CC(=O)N(c2ccccc2)C1=O (stereo unspecified)
- IC50 [10]: 59.7 µM (active)
- AC50 [11]: 4.5 µM (active)

Compound: CC1CCc2c(sc3ncn(CC(=O)N=Nc4c(O)[nH]c5ccccc45)c(=O)c23)C1 (stereo unspecified)
- Absolute IC50 (XBP1) (X-box-binding protein 1): 10 µM

Compound: CCN(CC)CCn1c2ccccc2c2nnc(S)nc21
- AC50 [12]: 5.41 µM (active)
- IC50 [10]: 19.5 µM (active)

Compound: CCOc1cc(NC(=O)c2cccs2)c(OCC)cc1N=C(S)NCC(C)C
- Absolute IC50 (XBP1) (X-box-binding protein 1): 10 µM

Compound: COCCCN1CCc2nc(S)nc(O)c2C1
- EC50 (T-cell): 0.594 µM (active)

Compound: CCCCN=C(S)NNC(=O)c1nn(C)c(C)c1Cl
- IC50 [13]: > 100 µM (inactive)

Compound: COc1ccc(C(=O)N(C)c2cc(Cl)ccc2C(=O)O)cc1
- IC50 (Hexokinase): > 25 µM (inactive)

Compound: CCCCN1C(=O)/C(=N\Nc2ccccc2C(F)(F)F)c2ccccc21
- IC50 [13]: 49.7 µM (active)
- IC50 [14]: 73.8 µM (active)

Compound: CCN1C(NCCCOC(C)C)=N[C@@H](c2ccccc2)[C@H](C(=O)OC)[C@H]1C
- IC50 [8]: 3.99 µM (active)
- IC50 [9]: 7.19 µM (active)

Compound: O=C1Nc2ccccc2/C1=C\NCCc1ccc(O)c(O)c1
- IC50 [13]: 0.374 µM (active)
- IC50 [14]: 2.54 µM (active)

Compound: COc1ccc(C(=O)Nc2cnccc2C(=O)O)cc1
- IC50 (Hexokinase): > 25 µM (inactive)
